Source: ChEMBL document CHEMBL5346920, “Development of the "hidden" multi-target-directed ligands by AChE/BuChE for the treatment of Alzheimer's disease” (Eur J Med Chem, 2023)

How the values were obtained:
[1] = target: T1, Amine oxidase [flavin-containing] A (Homo sapiens, UniProt P21397); assay: Inhibition of human recombinant MAO-A expressed in baculovirus-infected BTI cells using kynuramine as substrate incubated for 30 mins by fluorescence based analysis
T1 sequence (P21397 whole entry): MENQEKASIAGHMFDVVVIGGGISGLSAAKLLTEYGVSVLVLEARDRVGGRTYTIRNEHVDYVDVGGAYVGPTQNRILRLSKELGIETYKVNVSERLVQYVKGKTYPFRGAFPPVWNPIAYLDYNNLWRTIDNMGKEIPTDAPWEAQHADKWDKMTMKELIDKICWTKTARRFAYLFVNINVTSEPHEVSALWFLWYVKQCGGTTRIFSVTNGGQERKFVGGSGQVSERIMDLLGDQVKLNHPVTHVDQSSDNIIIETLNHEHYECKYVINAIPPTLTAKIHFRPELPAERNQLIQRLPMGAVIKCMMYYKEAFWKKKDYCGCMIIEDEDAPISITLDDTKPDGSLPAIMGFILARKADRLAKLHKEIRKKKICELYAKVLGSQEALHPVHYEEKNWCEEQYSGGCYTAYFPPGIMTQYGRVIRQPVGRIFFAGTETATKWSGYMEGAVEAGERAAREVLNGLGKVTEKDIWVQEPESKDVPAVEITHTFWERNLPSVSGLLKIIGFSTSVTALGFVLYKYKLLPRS

[2] = Stability of the compound in blank gastric juice assessed as parent compound remaining at 1 mg/ml measured after 8 hrs by UPLC-MS/MS analysis; assay type: ADME; conditions: read-out: Stability
[3] = Acute toxicity in zebra fish assessed as proportion of dead zebrafish at 5 to 10 ug/ml and measured every 24 hrs upto 120 hours post fertilization; design: species or system Danio rerio; conditions: in vivo, at 5 to 10 µg/mL, dose 5-10 µg/ml, read-out: Activity
[4] = Stability of the compound in blank intestinal juice assessed as parent compound remaining at 1 mg/ml measured after 8 hrs by UPLC-MS/MS analysis; assay type: ADME; conditions: read-out: Stability
Danio rerio [5] = organism: Danio rerio; assay: Antialzheimer activity against AlCl3-induced Alzheimer's disease zebra fish model assessed as total distance moved at 0.0195 ug/ml treated for 24 hrs and measured after 24 hrs under alternating light dark stimuli conditions (reference value: 543 cm); assay type: functional; conditions: dose 0.0195 µg/ml; time 48 hrs
Cholinesterase [6] = target: T2, Cholinesterase (Equus caballus, UniProt P81908); assay: Inhibition of equine serum BuChE using butyrylthiocholine chloride as substrate by Ellman's method; assay type: cell-free
T2 sequence (P81908 whole entry): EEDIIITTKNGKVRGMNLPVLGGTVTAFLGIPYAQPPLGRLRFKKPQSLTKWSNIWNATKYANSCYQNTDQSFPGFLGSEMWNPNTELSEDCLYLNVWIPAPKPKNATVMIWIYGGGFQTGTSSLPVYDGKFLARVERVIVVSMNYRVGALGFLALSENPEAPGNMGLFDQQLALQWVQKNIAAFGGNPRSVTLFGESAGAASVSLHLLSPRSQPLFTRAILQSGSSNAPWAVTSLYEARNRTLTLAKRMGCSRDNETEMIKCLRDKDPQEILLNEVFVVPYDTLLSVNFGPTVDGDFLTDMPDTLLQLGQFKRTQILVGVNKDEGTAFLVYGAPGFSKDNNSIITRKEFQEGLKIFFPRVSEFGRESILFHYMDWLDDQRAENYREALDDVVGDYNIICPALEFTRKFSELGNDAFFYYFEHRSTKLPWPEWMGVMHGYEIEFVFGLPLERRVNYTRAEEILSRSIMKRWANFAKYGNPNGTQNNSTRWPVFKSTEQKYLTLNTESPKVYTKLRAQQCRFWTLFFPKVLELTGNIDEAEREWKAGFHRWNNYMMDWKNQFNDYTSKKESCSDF

Cholinesterase [7] = target: T2, Cholinesterase; assay: Drug metabolism assessed as equine serum BuChE-mediated 3-(4-fluorophenyl)-1-(2-hydroxyphenyl)prop-2-en-1-one formation treated at 150 mmol/L with 0.001U BuChE and measured after 9 mins by HPLC analysis; assay type: ADME, cell-free; conditions: horse, 0.15 h
Danio rerio [8] = organism: Danio rerio; assay: Antialzheimer activity against AlCl3-induced Alzheimer's disease zebra fish model assessed as total distance moved at 0.0195 ug/ml treated for 24 hrs and measured after 24 hrs under dark environment (reference value: 312 cm); assay type: functional; conditions: dose 0.0195 µg/ml; time 48 hrs
BV-2 = assay: Cytotoxicity against mouse BV-2 cells assessed as reduction in cell viability at 10 uM by CCK8 assay; assay type: toxicity, cell-based; conditions: bv-2, 10 µM
[9] = Selectivity index, ratio of IC50 for inhibition of electric eel AChE to IC50 for inhibition of equine serum BuChE
[10] = target: Cholinesterase (Equus caballus) (UniProt P81908); assay: Reversible inhibition of equine serum BuChE assessed as enzyme activity using butyrylthiocholine chloride as substrate measured after dilution to 0.1XIC50 for 240 mins by Ellman's method; assay type: cell-free; design: scale not given: the % may be the effect or the level left
Cholinesterase (Equus caballus), sequence (P81908 whole entry): as above

[11] = Stability of the compound in artificial gastric juice assessed as parent compound remaining at 1 mg/ml measured after 8 hrs by UPLC-MS/MS analysis; assay type: ADME; conditions: read-out: Stability
Danio rerio [12] = organism: Danio rerio; assay: Neuroprotective activity against AlCl3-induced Alzheimer's disease zebra fish model assessed as distance velocity at 0.0049 ug/ml treated for 24 hrs and measured after 24 hrs under alternating light dark stimuli conditions (reference value: 9 cm/min); assay type: functional; conditions: dose 0.0049 µg/ml; time 48 hrs

Molecule `CCN(C)C(=O)Oc1ccccc1C(=O)/C=C/c1ccc(F)cc1` has an IC50 [1] of 38.2 µM, a remaining at 8 h, 1 mg/ml [2] of 103% and a mortality [3] of 100%. For the same molecule, the remaining at 8 h, 1 mg/ml [4] was 98.5%, the Activity (Danio rerio [5]) was 922 cm and the IC50 (Cholinesterase [6]) was 12.4 µM. The Drug metabolism (Cholinesterase [7]) was 2.52 mmol/L, the Activity (Danio rerio [8]) was 577 cm and the Activity (BV-2) was “Non-Toxic”. It also gave a Ratio IC50 [9] of 0.43, an Activity [10] of 93.3% and a remaining at 8 h, 1 mg/ml [11] of 97.3%. It also gave an Activity (Danio rerio [12]) of 12.7 cm/min.
